Measured values published in paper PMC8673480 (Journal of medicinal chemistry, 2021).

Biological target: SARS-CoV-2 3CLpro (Severe acute respiratory syndrome coronavirus 2, UniProt P0DTD1)
Experiment: cell-based

Question: Which EC50 does the source give for CCCC1CCC(COC(=O)NC(CC(C)C)C(=O)NC(C=O)CC2CCNC2=O)CC1 [Compound 8b, ((1r,4R)-4-Propylcyclohexyl) methyl ((2S)-4-methyl-1-oxo-1-(((2S)-1-oxo-3-(2-oxopyrrolidin-3-yl)propan-2-yl)amino)pentan-2-yl) carbamate] here?
Answer: 1030 ± 490 nM
